Laboratory results published in PubChem BioAssay (NCI).
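Protocol summary: plate cells (96-well), add compound at 5 concentrations, incubate 48 h, interpolate endpoints linearly. GI50: concentration for 50% inhibition of growth. TGI marks complete inhibition of growth.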

Key:
Test in all cases: NCI-60 cell line screen, 48 h
[1] = test system: NCI-H226 lung
[2] = test system: NCI-H23 lung
[3] = test system: NCI-H460 lung
[4] = test system: NCI-H522 lung
[5] = test system: NCI/ADR-RES ovarian
[6] = test system: OVCAR-4 ovarian
[7] = test system: OVCAR-5 ovarian
[8] = test system: OVCAR-8 ovarian
[9] = test system: PC-3 prostate
[10] = test system: RPMI-8226 leukemia
[11] = test system: RXF 393 renal
[12] = test system: SF-268 CNS
[13] = test system: SF-295 CNS
[14] = test system: SF-539 CNS
[15] = test system: SK-MEL-2 melanoma
[16] = test system: SK-MEL-28 melanoma
[17] = test system: SK-MEL-5 melanoma
[18] = test system: SN12C renal
[19] = test system: SNB-19 CNS
[20] = test system: SNB-75 CNS
[21] = test system: SR leukemia
[22] = test system: SW-620 colon
[23] = test system: T-47D breast
[24] = test system: TK-10 renal
[25] = test system: U251 CNS
[26] = test system: UACC-257 melanoma
[27] = test system: UACC-62 melanoma
[28] = test system: UO-31 renal

CNC(=O)c1c(NC(=O)c2ccccc2C(F)(F)F)sc2c1CCC(=O)C2
GI50 [1]: 2460 nM
TGI [1]: 8.01 µM
GI50 [2]: 1330 nM
TGI [2]: 7.61 µM
GI50 [3]: 3.27 µM
TGI [3]: > 100 µM
GI50 [4]: 347 nM
TGI [4]: 2330 nM
GI50 [5]: 1970 nM
TGI [5]: 13.4 µM
GI50 [6]: 1580 nM
TGI [6]: 4 µM
GI50 [7]: 1480 nM
TGI [7]: 5.58 µM
GI50 [8]: 1410 nM
TGI [8]: > 100 µM
GI50 [9]: 426 nM
TGI [9]: 14.6 µM
GI50 [10]: 278 nM
GI50 [11]: 1120 nM
TGI [11]: 4.2 µM
GI50 [12]: 3.19 µM
TGI [12]: > 100 µM
GI50 [13]: 2510 nM
TGI [13]: 7.63 µM
GI50 [14]: 678 nM
TGI [14]: 2220 nM
GI50 [15]: 2770 nM
TGI [15]: 7.6 µM
GI50 [16]: 3.59 µM
TGI [16]: 54.9 µM
GI50 [17]: 1700 nM
TGI [17]: 3.72 µM
GI50 [18]: 2900 nM
TGI [18]: > 100 µM
GI50 [19]: 3.18 µM
TGI [19]: > 100 µM
GI50 [20]: 1540 nM
TGI [20]: 6.82 µM
GI50 [21]: 538 nM
TGI [21]: > 100 µM
GI50 [22]: 363 nM
TGI [22]: 12.2 µM
GI50 [23]: 528 nM
TGI [23]: 4.98 µM
GI50 [24]: 1540 nM
TGI [24]: > 100 µM
GI50 [25]: 817 nM
TGI [25]: > 100 µM
GI50 [26]: 2760 nM
TGI [26]: 8.28 µM
GI50 [27]: 1450 nM
TGI [27]: 3.91 µM
GI50 [28]: 574 nM
TGI [28]: 1950 nM
